Experiments:
Test in all cases: KINOMEscan competition binding
Settings in all cases: compound 10.0 µM
[1] = target: MAP3K4 (human) (UniProt Q9Y6R4)
[2] = target: DDR2 (human) (UniProt Q16832)
[3] = target: ROCK1 (human) (UniProt Q13464)
[4] = target: PTK2B (human) (UniProt Q14289)
[5] = target: PLK3 (human) (UniProt Q9H4B4)
[6] = target: RIPK1 (human) (UniProt Q13546)
[7] = target: AAK1 (human) (UniProt Q2M2I8)
[8] = target: PRKCD (human) (UniProt Q05655)
[9] = target: STK32A (human) (UniProt Q8WU08)
[10] = target: PIM1 (human) (UniProt P11309)
[11] = target: JAK1 JH1 catalytic (human) (UniProt P23458)
[12] = target: CDK15 (human) (UniProt Q96Q40)
[13] = target: TAOK3 (human) (UniProt Q9H2K8)
[14] = target: CDC2L2 (human) (UniProt Q9UQ88)
[15] = target: PRKD3 (human) (UniProt O94806)
[16] = target: MYO3B (human) (UniProt Q8WXR4)
[17] = target: STK33 (human) (UniProt Q9BYT3)
[18] = target: DAPK1 (human) (UniProt P53355)
[19] = target: CSNK1D (human) (UniProt P48730)
[20] = target: NLK (human) (UniProt Q9UBE8)
[21] = target: DMPK (human) (UniProt Q09013)
[22] = target: MAP3K7 (human) (UniProt O43318)
[23] = target: CSK (human) (UniProt P41240)
[24] = test system: EIF2AK4 KD2 (human), Q9P2K8 [S808G]
[25] = target: SNRK (human) (UniProt Q9NRH2)
[26] = target: TYRO3 (human) (UniProt Q06418)
[27] = target: PHKG2 (human) (UniProt P15735)
[28] = test system: MET (human), P08581 [Y1235D]
[29] = target: TESK1 (human) (UniProt Q15569)
[30] = target: PAK4 (human) (UniProt O96013)
[31] = target: MAP3K11 (human) (UniProt Q16584)
[32] = target: CSNK1A1L (human) (UniProt Q8N752)
[33] = target: GSK3B (human) (UniProt P49841)
[34] = target: CLK4 (human) (UniProt Q9HAZ1)
[35] = target: LATS1 (human) (UniProt O95835)
[36] = target: RIPK4 (human) (UniProt P57078)
[37] = target: MUSK (human) (UniProt O15146)
[38] = target: STK39 (human) (UniProt Q9UEW8)
[39] = target: ABL2 (human) (UniProt P42684)
[40] = target: MARK3 (human) (UniProt P27448)
[41] = target: RPS6KA6 KD2 (human) (UniProt Q9UK32)
Chain of RPS6KA6 KD2 (human) (Q9UK32 whole entry, looked up): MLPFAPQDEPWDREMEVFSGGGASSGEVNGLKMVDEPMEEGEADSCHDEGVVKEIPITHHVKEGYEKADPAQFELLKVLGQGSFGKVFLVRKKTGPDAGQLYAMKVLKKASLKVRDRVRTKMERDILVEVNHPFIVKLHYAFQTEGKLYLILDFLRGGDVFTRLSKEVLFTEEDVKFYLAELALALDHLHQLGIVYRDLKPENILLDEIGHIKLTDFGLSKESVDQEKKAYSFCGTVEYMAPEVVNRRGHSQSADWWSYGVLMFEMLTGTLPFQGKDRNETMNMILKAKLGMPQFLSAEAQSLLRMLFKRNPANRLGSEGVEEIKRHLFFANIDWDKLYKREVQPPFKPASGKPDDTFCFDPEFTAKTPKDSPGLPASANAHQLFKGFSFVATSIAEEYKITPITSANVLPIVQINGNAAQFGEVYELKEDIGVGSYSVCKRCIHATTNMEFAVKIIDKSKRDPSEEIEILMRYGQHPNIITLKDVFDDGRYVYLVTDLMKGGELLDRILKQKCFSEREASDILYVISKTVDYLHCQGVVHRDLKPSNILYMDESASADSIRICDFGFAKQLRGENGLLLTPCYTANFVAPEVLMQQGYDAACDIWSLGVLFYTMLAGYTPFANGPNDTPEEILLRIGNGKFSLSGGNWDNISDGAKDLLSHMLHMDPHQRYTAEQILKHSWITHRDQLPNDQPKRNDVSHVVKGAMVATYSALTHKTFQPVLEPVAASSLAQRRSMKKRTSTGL

Chain of PIM1 (human) (P11309 whole entry, looked up): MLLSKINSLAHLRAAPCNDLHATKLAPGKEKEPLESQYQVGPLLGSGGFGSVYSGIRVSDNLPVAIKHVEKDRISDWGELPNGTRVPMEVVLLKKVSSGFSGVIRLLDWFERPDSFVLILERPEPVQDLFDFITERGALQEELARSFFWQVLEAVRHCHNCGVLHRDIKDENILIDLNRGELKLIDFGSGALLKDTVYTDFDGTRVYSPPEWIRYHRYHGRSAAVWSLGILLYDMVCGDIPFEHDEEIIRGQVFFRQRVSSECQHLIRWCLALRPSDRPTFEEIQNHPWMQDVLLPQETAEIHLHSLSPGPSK
Chain of AAK1 (human) (Q2M2I8 whole entry, looked up): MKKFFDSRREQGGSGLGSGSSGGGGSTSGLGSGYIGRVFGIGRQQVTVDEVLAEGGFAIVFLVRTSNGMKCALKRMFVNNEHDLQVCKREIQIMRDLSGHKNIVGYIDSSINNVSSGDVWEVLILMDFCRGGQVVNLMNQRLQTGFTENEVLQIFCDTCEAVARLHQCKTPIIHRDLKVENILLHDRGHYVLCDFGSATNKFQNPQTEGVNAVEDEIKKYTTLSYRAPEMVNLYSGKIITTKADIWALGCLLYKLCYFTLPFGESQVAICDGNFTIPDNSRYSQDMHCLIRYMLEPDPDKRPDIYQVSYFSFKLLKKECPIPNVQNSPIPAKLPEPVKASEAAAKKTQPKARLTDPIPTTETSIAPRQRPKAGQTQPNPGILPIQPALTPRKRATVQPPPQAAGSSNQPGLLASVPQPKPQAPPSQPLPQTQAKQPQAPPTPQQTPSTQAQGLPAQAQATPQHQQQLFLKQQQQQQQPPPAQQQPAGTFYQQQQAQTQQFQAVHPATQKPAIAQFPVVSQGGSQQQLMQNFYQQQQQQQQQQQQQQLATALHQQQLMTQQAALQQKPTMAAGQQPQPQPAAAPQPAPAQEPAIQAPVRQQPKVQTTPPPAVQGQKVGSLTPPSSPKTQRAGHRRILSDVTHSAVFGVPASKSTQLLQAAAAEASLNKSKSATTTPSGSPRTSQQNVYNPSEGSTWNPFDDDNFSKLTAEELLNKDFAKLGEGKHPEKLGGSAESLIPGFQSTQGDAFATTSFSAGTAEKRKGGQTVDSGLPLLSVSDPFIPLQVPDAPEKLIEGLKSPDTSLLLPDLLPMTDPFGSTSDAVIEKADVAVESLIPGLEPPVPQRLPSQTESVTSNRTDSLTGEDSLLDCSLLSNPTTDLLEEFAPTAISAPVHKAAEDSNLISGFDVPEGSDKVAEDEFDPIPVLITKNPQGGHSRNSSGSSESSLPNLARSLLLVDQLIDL
Chain of CLK4 (human) (Q9HAZ1 whole entry, looked up): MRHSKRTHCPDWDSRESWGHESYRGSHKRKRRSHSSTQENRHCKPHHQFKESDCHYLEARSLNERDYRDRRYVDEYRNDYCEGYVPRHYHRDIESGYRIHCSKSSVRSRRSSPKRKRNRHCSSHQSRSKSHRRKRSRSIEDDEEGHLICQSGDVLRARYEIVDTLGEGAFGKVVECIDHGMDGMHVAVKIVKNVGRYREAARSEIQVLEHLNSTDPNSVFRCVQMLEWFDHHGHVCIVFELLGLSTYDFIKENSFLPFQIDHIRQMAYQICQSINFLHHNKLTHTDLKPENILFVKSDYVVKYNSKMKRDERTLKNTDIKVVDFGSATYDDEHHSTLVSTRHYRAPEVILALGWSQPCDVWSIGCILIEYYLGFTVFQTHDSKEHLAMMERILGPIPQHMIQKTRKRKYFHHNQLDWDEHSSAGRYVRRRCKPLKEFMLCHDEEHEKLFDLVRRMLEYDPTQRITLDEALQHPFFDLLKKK
Chain of DMPK (human) (Q09013 whole entry, looked up): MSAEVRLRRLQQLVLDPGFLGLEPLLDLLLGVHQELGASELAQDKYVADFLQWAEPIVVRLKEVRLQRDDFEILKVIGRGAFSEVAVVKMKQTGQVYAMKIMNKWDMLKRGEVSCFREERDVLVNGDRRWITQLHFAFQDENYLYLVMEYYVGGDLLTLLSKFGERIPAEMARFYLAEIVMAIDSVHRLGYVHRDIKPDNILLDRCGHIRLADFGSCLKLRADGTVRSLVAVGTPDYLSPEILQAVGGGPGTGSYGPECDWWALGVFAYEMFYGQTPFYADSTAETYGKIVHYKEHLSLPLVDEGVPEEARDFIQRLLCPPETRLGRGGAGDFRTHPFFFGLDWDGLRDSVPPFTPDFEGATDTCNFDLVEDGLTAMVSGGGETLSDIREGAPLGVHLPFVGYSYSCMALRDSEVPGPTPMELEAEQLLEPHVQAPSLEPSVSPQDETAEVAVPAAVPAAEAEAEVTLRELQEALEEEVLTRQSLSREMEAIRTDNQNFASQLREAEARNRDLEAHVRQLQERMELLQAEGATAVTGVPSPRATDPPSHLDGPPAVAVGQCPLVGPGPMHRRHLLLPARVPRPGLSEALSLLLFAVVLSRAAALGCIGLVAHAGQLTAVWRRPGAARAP
Chain of MARK3 (human) (P27448 whole entry, looked up): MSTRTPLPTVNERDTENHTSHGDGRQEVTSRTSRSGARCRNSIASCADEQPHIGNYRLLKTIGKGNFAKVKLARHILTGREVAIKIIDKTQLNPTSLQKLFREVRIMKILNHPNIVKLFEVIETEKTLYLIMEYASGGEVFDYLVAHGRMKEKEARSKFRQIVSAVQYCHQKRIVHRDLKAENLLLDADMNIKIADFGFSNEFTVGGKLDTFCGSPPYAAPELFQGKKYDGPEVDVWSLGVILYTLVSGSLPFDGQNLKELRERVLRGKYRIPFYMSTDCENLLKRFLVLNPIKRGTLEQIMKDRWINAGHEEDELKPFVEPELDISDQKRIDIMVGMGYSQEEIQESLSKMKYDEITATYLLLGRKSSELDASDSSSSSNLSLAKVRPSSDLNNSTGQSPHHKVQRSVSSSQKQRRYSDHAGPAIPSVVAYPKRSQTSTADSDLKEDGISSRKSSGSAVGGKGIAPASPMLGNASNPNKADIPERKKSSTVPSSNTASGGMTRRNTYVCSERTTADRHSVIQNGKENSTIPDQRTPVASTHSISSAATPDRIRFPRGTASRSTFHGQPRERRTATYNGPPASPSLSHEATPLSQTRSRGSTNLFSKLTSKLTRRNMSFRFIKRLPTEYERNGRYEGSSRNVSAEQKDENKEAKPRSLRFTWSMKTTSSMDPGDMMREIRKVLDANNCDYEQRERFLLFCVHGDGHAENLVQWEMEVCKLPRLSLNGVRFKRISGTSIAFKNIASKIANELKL
Chain of STK32A (human) (Q8WU08 whole entry, looked up): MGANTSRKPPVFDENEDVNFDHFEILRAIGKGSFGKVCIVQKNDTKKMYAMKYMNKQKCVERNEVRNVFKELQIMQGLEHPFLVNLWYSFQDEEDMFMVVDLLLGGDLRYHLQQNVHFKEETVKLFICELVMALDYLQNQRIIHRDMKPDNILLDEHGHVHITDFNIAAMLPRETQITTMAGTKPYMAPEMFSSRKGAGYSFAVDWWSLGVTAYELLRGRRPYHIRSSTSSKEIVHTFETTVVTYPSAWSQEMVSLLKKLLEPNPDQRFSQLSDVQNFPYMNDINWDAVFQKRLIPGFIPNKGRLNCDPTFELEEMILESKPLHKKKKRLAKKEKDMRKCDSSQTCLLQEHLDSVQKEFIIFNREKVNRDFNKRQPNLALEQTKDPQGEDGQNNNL
Chain of GSK3B (human) (P49841 whole entry, looked up): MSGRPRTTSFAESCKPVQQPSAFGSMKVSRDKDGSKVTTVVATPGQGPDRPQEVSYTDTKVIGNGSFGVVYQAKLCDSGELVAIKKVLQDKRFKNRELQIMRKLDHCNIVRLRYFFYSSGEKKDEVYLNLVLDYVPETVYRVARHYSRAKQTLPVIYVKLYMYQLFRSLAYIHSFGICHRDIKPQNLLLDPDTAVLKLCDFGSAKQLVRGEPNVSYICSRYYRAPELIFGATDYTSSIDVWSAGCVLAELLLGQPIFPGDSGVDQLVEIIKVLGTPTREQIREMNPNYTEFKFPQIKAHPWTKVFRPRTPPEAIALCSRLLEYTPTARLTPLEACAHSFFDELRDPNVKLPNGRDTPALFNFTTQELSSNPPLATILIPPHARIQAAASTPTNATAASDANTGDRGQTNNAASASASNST

## COc1ccc(-c2ccc3c(N4CCOCC4)nc(N4C[C@@H](C)O[C@@H](C)C4)nc3n2)cc1CO
[1]
  kinase still bound, per cent of control: 100%
[2]
  kinase still bound, per cent of control: 100%
[3]
  kinase still bound, per cent of control: 89%
[4]
  kinase still bound, per cent of control: 84%
[5]
  kinase still bound, per cent of control: 92%
[6]
  kinase still bound, per cent of control: 100%
[7]
  kinase still bound, per cent of control: 93%
[8]
  kinase still bound, per cent of control: 100%
[9]
  kinase still bound, per cent of control: 67%
[10]
  kinase still bound, per cent of control: 94%
[11]
  kinase still bound, per cent of control: 84%
[12]
  per cent of control: 95%
[13]
  kinase still bound, per cent of control: 90%
[14]
  per cent of control: 100%
[15]
  kinase still bound, per cent of control: 85%
[16]
  kinase still bound, per cent of control: 100%
[17]
  kinase still bound, per cent of control: 95%
[18]
  kinase still bound, per cent of control: 95%
[19]
  per cent of control: 79%
[20]
  kinase still bound, per cent of control: 96%
[21]
  kinase still bound, per cent of control: 86%
[22]
  kinase still bound, per cent of control: 99%
[23]
  kinase still bound, per cent of control: 77%
[24]
  kinase still bound, per cent of control: 66%
[25]
  kinase still bound, per cent of control: 48%
[26]
  kinase still bound, per cent of control: 100%
[27]
  kinase still bound, per cent of control: 77%
[28]
  kinase still bound, per cent of control: 100%
[29]
  kinase still bound, per cent of control: 98%
[30]
  kinase still bound, per cent of control: 86%
[31]
  kinase still bound, per cent of control: 100%
[32]
  kinase still bound, per cent of control: 97%
[33]
  kinase still bound, per cent of control: 100%
[34]
  kinase still bound, per cent of control: 62%
[35]
  kinase still bound, per cent of control: 96%
[36]
  kinase still bound, per cent of control: 71%
[37]
  kinase still bound, per cent of control: 100%
[38]
  per cent of control: 100%
[39]
  kinase still bound, per cent of control: 95%
[40]
  kinase still bound, per cent of control: 96%
[41]
  kinase still bound, per cent of control: 93%
